Source: ChEMBL document CHEMBL6120940, “Discovery of N-Aryl-N'-[4-(aryloxy)cyclohexyl]squaramide-Based Inhibitors of LXR/SREBP-1c Signaling Pathway Ameliorating Steatotic Liver Disease: Navigating the Role of SIRT6 Activation” (J Med Chem, 2024)
Calls of active or inactive are those of the source.

How the values were obtained:
[1] = test system: Mus musculus; assay: Anti-lipogenic activity against high fat died induced male C57BL/6J mouse obesity model assessed as downregulation of Srebp-1c level at 15 mg/kg, po administered three times per week and measured after 5 weeks by RT-qPCT analysis; assay type: functional, organism-based
[2] = test system: Hepatocyte; assay: Effect on Acox-2 gene expression in mouse hepatocyte; assay type: functional, cell-based
[3] = test system: HepG2; assay: Downregulation of LXR level in human HepG2 cells transfected with SIRT6 SiRNA at 10 uM preincubated for 30 mins followed by T0901317 addition and measured after 12 hrs; assay type: functional, cell-based; conditions: time 12.5 hrs
[4] = target: T1, Sterol regulatory element-binding protein 1 (Homo sapiens) (UniProt P36956); assay: Inhibition of SREBP-1c transcriptional activity in human HepG2 cells expressing LXRalpha/RXRalpha assessed as reduction in SRE-luciferase level at 10 uM pretreated with compound for 30 mins followed by T0901317 addition and measured after 12 hrs by Dual-Glo luciferase assay relative to control; assay type: cell-based; conditions: time 12.5 hrs
T1 sequence (whole entry): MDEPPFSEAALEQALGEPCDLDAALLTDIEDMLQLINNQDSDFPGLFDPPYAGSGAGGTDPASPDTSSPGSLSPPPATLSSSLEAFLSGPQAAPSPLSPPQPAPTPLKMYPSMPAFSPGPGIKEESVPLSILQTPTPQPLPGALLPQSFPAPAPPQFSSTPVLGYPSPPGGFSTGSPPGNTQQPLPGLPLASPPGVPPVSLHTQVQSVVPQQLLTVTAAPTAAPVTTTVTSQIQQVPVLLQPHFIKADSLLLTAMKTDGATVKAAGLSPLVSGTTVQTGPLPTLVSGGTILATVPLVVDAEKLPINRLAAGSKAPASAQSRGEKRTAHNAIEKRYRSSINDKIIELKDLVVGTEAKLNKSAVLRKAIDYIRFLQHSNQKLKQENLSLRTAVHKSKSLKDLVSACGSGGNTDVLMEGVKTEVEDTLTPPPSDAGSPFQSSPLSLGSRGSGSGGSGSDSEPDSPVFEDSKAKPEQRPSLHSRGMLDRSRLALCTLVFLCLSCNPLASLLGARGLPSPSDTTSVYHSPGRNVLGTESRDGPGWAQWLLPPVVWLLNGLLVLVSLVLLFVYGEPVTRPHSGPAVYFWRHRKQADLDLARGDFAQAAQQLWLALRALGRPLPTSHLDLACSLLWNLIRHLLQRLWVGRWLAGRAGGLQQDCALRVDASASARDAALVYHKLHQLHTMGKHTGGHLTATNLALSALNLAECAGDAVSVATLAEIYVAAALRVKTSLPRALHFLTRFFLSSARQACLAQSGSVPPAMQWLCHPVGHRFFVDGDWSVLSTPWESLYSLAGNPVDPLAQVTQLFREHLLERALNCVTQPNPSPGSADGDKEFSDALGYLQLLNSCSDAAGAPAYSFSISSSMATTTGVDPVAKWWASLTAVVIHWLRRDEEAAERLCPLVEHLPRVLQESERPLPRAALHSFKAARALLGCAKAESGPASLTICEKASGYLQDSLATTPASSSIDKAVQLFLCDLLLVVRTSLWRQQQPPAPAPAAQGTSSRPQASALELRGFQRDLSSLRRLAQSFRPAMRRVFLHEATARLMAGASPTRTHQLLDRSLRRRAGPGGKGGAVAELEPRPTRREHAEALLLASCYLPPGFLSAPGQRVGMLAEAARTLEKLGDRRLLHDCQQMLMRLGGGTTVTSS

[5] = test system: AML12; assay: Downregulation of SREBP-1c expression level in mouse AML12 cells at 10 uM pretreated with compound for 30 mins followed by T0901317 addition and measured after 12 hrs by RT-qPCR analysis; assay type: functional, cell-based; conditions: time 12.5 hrs
[6] = test system: Mus musculus; assay: Anti-lipogenic activity against high fat died induced male C57BL/6J mouse obesity model assessed as reduction in lipid droplet formation at 15 mg/kg, po administered three times per week and measured for 5 weeks by H and E staining based analysis; assay type: functional, organism-based
[7] = test system: Hepatocyte; assay: Downregulation of Cd36 mRNA level in mouse Hepatocyte at 10 uM incubated for 30 mins followed by T0901317 addition by RT-qPCR analysis; assay type: functional, cell-based
[8] = test system: Hepatocyte; assay: Effect on Cpt1 gene expression in mouse hepatocyte; assay type: functional, cell-based
[9] = target: T2, Oxysterols receptor LXR-alpha (Homo sapiens) (UniProt Q13133); assay: Inhibition of LXRalpha in human HepG2 cells expressing LXRE at 2.5 to 5 uM preincubated for 30 mins followed by T0901317 addition and measured after 24 hrs by Dual-glo luciferase assay; assay type: cell-based; conditions: dose 2.5-5 µM, time 24.5 hrs
T2 sequence (whole entry): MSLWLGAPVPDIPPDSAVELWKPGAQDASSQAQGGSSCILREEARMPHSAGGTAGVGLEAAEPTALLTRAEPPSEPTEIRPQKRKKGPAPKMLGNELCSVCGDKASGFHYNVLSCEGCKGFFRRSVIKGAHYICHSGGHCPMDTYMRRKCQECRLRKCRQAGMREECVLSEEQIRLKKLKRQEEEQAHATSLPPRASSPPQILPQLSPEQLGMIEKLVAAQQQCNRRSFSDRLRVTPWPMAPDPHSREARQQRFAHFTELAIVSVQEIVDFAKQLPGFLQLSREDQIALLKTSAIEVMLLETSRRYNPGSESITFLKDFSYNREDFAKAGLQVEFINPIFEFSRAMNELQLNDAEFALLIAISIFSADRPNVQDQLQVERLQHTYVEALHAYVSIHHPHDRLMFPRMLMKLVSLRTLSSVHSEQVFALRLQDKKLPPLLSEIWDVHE

[10] = test system: HepG2; assay: Activation of AMPK in human HepG2 cells assessed as increase in ratio of ACACA phosphorylation to total ACACA at 5 uM pretreated with compound for 30 mins followed by T0901317 addition and measured after 12 hrs by immunoblot analysis; assay type: cell-based; conditions: filed as activator, time 12.5 hrs
[11] = test system: HepG2; assay: Downregulation of SCD gene expression in human HepG2 cells in presence of T0901317 by RNA sequencing analysis; assay type: functional, cell-based

COc1ccccc1Nc1c(N[C@H]2CC[C@H](Oc3ccc([N+](=O)[O-])cc3)CC2)c(=O)c1=O
27.7%: inhibition [4]
active: Activity [1] | Activity [5] | Activity [6] | inhibition [9] | Activity [10] | Activity [11]
inactive: Activity [2] | Activity [3] | Activity [7] | Activity [8]
